Laboratory results published in patent US20240238232A1, “COMPOSITIONS AND METHODS FOR THE REDUCTION OR TREATMENT OF INSULIN RESISTANCE AND METABOLIC CONDITIONS” (AXCELLA HEALTH INC., priority 2018, published 2024).
Several values for one entry are separate records, joined by “and”; a condition that tells them apart may be missing. Identical values can stand only once.

Assays:
[1] = system: α-smooth muscle actin (αSMA), activated hepatic stellate cells; test: α-smooth muscle actin staining of liver sections (activated hepatic stellate cells) in STAM mice, Example 2; format: in vivo, mouse; settings: A-1 1500 mg/kg twice daily, OCA 30 mg/kg once daily
Method: Amino Acid Composition A-1 and Obeticholic acid (6α-ethyl-chenodeoxycholic acid; “OCA”) were tested for their ability to treat NASH in the STAM™ model (Stelic Institute & Co., Tokyo, Japan; Saito K. et al., 2015 Sci Rep 5:12466). Two additional groups of normal C57BL/6 mice fed standard chow and vehicle treated STAM™ mice were included as controls. All animals receiving treatment or vehicle were treated starting at 6 weeks until 9 weeks of age. Compounds were administered via oral gavage, with a dose volume of 10 ml/kg. Amino Acid Composition A-1 was administered twice daily at a dose of 1500 mg/kg, and OCA was administered once daily at a dose of 30 mg/kg.
Amino Acid Composition A-1, OCA and Vehicle (described below) were administered by oral route in a volume of 10 mL/kg. Amino Acid Composition A-1 was solubilized in deionized water to 150 mg/ml (10 X). OCA (Advanced ChemBlocks Inc.) was resuspended in 0.5% methycellulose in water to 3 mg/ml (10 X). Amino Acid Composition A-1 was administered at a dose of 1500 mg/kg twice daily (9 am and 7 pm). OCA was administered at a dose of 30 mg/kg once daily (9 am).
Liver sections of all mice were stained for the marker α-smooth muscle actin (αSMA) to identify activated hepatic stellate cells. Images were quantified using the percent of positively stained area was used as a measure of stellate cell activation. […]

FATZO mouse model = test: Liver histology: NAFLD activity score, steatosis, inflammation, ballooning in FATZO mice on WDF, Example 5; format: in vivo; settings: 4 weeks
Source text: NASH was induced in 60 male FATZO mice by a western diet (Research Diet #D12079B; fat 40% kcal, protein 17% kcal, carbohydrate 43% kcal) supplemented with 500 fructose in the drinking water (WDF) during a 16 week induction phase. Diets and water were available ad libitum. Littermate control male FATZO mice fed with a control diet (n=6, Purina #5008; fat 17% kcal, protein 27% kcal, carbohydrate 56% kcal) and sterile water were set up for control purpose. Mice were housed in plastic cages with microisolator. Sterilized bedding was replaced once a week. Mice were housed three per cage and maintained on a twelve hour light cycle throughout study duration. Room temperature was monitored daily and maintained at 22-25° C. Body weight was recorded every week during the induction phase.
Following 16 weeks diet induction, 6 mice remained on control diet (group 1, Control) while 60 induced mice were randomized on body weight and plasma glucose (fed) for assignment to the following treatments. FATZO mice were administered with test articles starting at 16 weeks post western diet NASH induction for 4 weeks. Test articles were administered by oral gavage. Animals were euthanized at 20 weeks post western diet NASH induction, and tissues were harvested for analysis.
[…], […]+G, LRQNAC, OCA and Vehicle were administered by oral gavage at a volume of 10 mL/kg throughout the study. Dosages were calculated by daily body weight. […], […]+G, LRQNAC, and Vehicle were administered twice per day (BID), while OCA was administered once a day (QD) in the morning. Mice receiving OCA once per day (QD), and one vehicle QD. Doses were administered by oral gavage at 0700 and 1800 by oral gavage for 4 weeks.
The liver tissues were fixed in Bouin's solution at 4° C. for 24 hours followed by baths of standard concentrations of alcohol then xylene to prepare the tissues for paraffin embedding.
After being embedded in paraffin and cooled, five-micron sections were cut and stained for routine H&E and Picric Sirius Red. A section of both right and left lobes of the livers were frozen in OCT for analysis of lipid content with Oil-Red-) staining. The Aperio whole slide digital imaging system (Scan Scope C S, Vista, CA) was used for imaging. All slides were imaged at 20×. The scan time ranged from 1.5 minutes to a maximum time of 2.25 minutes. The whole images were housed and stored in their Spectrum software system and images were shot from the whole slides.
The livers were evaluated using the NASH liver criteria for scoring. In this mouse study, one cross section of liver for each case was analyzed with the NASH score system. According to the published NASH CRN Scoring System, this scoring system comprises of NAFLD Activity Score (NAS), fibrosis stage and identification of NASH by pattern recognition. The NAS can range from 0 to 8 and is calculated by the sum of scores of steatosis (0-3), lobular inflammation (0-3) and hepatocyte ballooning (0-2) from H&E stained sections. Fibrosis was scored (0-4) from picrosirius red stained slides. […] Steatosis, lobular inflammation, hepatocyte. balloon degeneration, fibrosis, NAS and the presence of NASH by pattern recognition were systematically assessed. In this study we evaluated one total cross section of liver per mouse in this study. […] The pathology score was determined as 0, +1, +2, or +3. The lesions were scored on location (periportal, centrilobular, and mid zonal) and fat accumulation (focal, periportal, and/or centrilobular). […]

[2] = score 0-3, oral, LIVRQNAC + G 3885 mg/kg, LRQNAC 2469 mg/kg, OCA 30 mg/kg/day

CC[C@H]1[C@@H](O)[C@@H]2[C@H](CC[C@]3(C)[C@@H]([C@H](C)CCC(=O)O)CC[C@@H]23)[C@@]2(C)CC[C@@H](O)C[C@@H]12 [OCA, 6α-ethyl-chenodeoxycholic acid]
Activated hepatic stellate cells (mean positively stained area, α-smooth muscle actin) ([1]; STAM mice, oral, 6 to 9 weeks of age): 1.562+/−0.31% and 1.562% | Activated hepatic stellate cells (positively stained area, α-smooth muscle actin): raw data ([1]; individual STAM mice): 1.51% and 1.49% (2×) and 1.17% and 1.13% and 2.03% and 1.87% and 1.97% and 1.46% | NAFLD activity score (NAS) compared to vehicle (FATZO mouse model): no significant effect | Liver Pathology NAS (FATZO mouse model; oral, LIVRQNAC + G 3885 mg/kg, LRQNAC 2469 mg/kg, OCA 30 mg/kg/day): 3.72 ± 0.147 | Liver Pathology Ballooning (FATZO mouse model; score 0-2, oral, LIVRQNAC + G 3885 mg/kg, LRQNAC 2469 mg/kg, OCA 30 mg/kg/day): 0.94 ± 0.056 | Liver Pathology Inflammation (FATZO mouse model; [2]): 1.0 ± 0.0 | Liver Pathology Steatosis (FATZO mouse model; [2]): 1.78 ± 0.147
